Measurements published in US20260224563A1, “CRYSTALLINE FORMS OF 6-(3-((5-CHLORO-2-METHOXYPYRIDINE)-3-SULFONAMIDO)-2,6-DIFLUOROPHENYL)-N-METHYLIMIDAZO[1,5-A]PYRAZINE-1-CARBOXAMIDE AND METHODS FOR USING THE SAME” (HIBERCELL, INC., priority 2023, published 2026).
≈ marks a conversion by molar mass, not a printed value. Structures can show the parent of a compound that is named as a salt. Where two headings read alike, the source gives them in different places.

Tests used:
Type in all cases: physicochemical
[1] = Water activity study of the crystalline potassium salt forms (acetone/water suspension, XRPD); conditions: water/acetone
Method: A water activity study of the potassium salt forms was conducted in two groups: (i) Form I and Form III of the potassium salt, and (ii) Form II and Form III of the potassium salt.
Each suspension was shaken at 700 rpm in a shaker at 25° C., 35° C., 45° C., and 50° C., and the sample was analyzed by XRPD.

[2] = Solubility testing in organic solvents and water (visual, room temperature)
[3] = Solubility in simulated biological fluid (FaSSGF and FaSSIF) at 37° C., HPLC; pH of filtrate, XRPD of filter cake; conditions: for pH (24 h): filtrate; for XRPD (filter cake, crystal form): up to 24 hours; for XRPD: filter cake; for times more soluble than the free acid (Form II): 0.5-hour mark
Method: (§1) Approximately between 15 mg and 24 mg of sample was suspended in 5 mL or 8 mL of FaSSGF or FaSSIF, respectively. The resulting suspension was shaken at 700 rpm with a QQMSC-100 shaker at 37° C. The suspension was sampled and filtered at certain time intervals, which was achieved by sampling 1000 μL of each suspension which was then filtered and diluted, diluting the resulting filtrate for HPLC analysis to assess solubility. The pH of the filtrate was measured, and the filter cake was analyzed by XRPD.
as §1, with “Approximately” for “Approximately between”, “mg to” for “mg and”, “5” for “5 mL”, “suspension” for “suspension which”, “was” for “was then”
Approximately 15 mg to 24 mg of sample was suspended in 5 or 8 mL of FaSSGF or FaSSIF, respectively. The resulting suspension was shaken at 700 rpm with a QQMSC-100 shaker at 37° C. The suspension was sampled and filtered in certain time interval, which was achieved by sampling 1000 μL of each suspension was filtered and diluted, diluting the resulting filtrate for HPLC analysis to assess solubility. The pH of the filtrate was measured, and the filter cake was analyzed by XRPD.

[4] = Solid-state stability (60° C./closed and 40° C./75% relative humidity open, up to seven days; HPLC purity, XRPD); conditions: for physical and chemical stability: both closed (60° C.) and open (40° C./75% RH) conditions for seven days
Method: HPLC method for stability and solubility testing is listed below.
• Column: Ascentis® Express C18 4.6*150 mm*2.7 μm • Mobile Phase A: 0.05% trifluoroacetic acid in water • Mobile Phase B: Methanol • Gradient (T/B %): 0/10, 10/100, 13.5/10, 15/10 • Column Temperature: 40° C. • Detector: DAD; 220 nm • Flow rate: 1.0 mL/min • Injection volume: 1 μL • Concentration: 1 mg/mL • Run time: 15 minutes • Diluent: Methanol:Water 9:1 (v/v)
The solid-state stability of Form III of the potassium salt was performed using the following protocol: • (1) A sample of Form III of the potassium salt was placed at 60° C./closed and 40° C./75% relative humidity (open) conditions for up to seven days. At the onset of the test (day 0) and day 7 of the test, the sample was dissolved in a diluent to prepare a 1 mg/mL solution for HPLC purity analysis. The solid sample was analyzed by XRPD to assess the crystal form of each solid at day 7. […] The XRPD data confirmed the physicochemical stability of Form III of the potassium salt under both closed and open conditions. […]

[5] = Dynamic vapor sorption (DVS); conditions: for DVS weight gain: 25° C.
Method: Moisture sorption/desorption data was collected on a Vsorp Dynamic Moisture Sorption Analyzer (ProUmid GmbH & Co. KG, Germany). The sample was placed into a tared sample chamber and automatically weighed.
• Equilibrium Condition: 0.01%/40 min • Time between weighing cycles: 10 minutes • Minimum time per climate cycle: 50 minutes • Maximum time per climate cycle: 2.0 hour • Balanced condition: 25° C. at 60% […] for 4 hours • Sample temperature: 25° C. • Adsorption: 70, 80, 90 • Desorption: 80, 70, 60, 50, 40, 30, 20, 10, 0 • Adsorption: 10, 20, 30, 40, 50, 60

SMILES: CNC(=O)c1ncn2cc(-c3c(F)ccc([N-]S(=O)(=O)c4cc(Cl)cnc4OC)c3F)ncc12.[K+] [Forms I and III of the Potassium Salt]
- Crystalline form by XRPD ([1]; 0% water without molecular sieves, KF 0.189 wt. %, 25° C.): Form III
- Crystalline form by XRPD ([1]; 0% water without molecular sieves, KF 0.189 wt. %, 35° C.): Form III
- Crystalline form by XRPD ([1]; 0% water without molecular sieves, KF 0.189 wt. %, 45° C.): Form III
- Crystalline form by XRPD ([1]; 0% water without molecular sieves, KF 0.189 wt. %, 50° C.): Form III
- Crystalline form by XRPD ([1]; 10 V% water, KF 14.9 wt. %, 25° C.): Form III
- Crystalline form by XRPD ([1]; 10 V% water, KF 14.9 wt. %, 35° C.): Form III
- Crystalline form by XRPD ([1]; 10 V% water, KF 14.9 wt. %, 45° C.): Form III
- Crystalline form by XRPD ([1]; 10 V% water, KF 14.9 wt. %, 50° C.): Form III
- Crystalline form by XRPD ([1]; 25 V% water, KF 34.5 wt. %, 25° C.): Form III
- Crystalline form by XRPD ([1]; 25 V% water, KF 34.5 wt. %, 35° C.): Form III
- Crystalline form by XRPD ([1]; 25 V% water, KF 34.5 wt. %, 45° C.): Form III
- Crystalline form by XRPD ([1]; 25 V% water, KF 34.5 wt. %, 50° C.): Form III
- Crystalline form by XRPD ([1]; 50 V% water, KF 60.1 wt. %, 25° C.): Form III
- Crystalline form by XRPD ([1]; 50 V% water, KF 60.1 wt. %, 35° C.): Form III
- Crystalline form by XRPD ([1]; 50 V% water, KF 60.1 wt. %, 45° C.): Form III
- Crystalline form by XRPD ([1]; 50 V% water, KF 60.1 wt. %, 50° C.): Form III
- Crystalline form by XRPD ([1]; 75 V% water, KF 90.5 wt. %, 25° C.): Form III
- Crystalline form by XRPD ([1]; 75 V% water, KF 90.5 wt. %, 35° C.): Form III
- Crystalline form by XRPD ([1]; 75 V% water, KF 90.5 wt. %, 45° C.): Form III
- Crystalline form by XRPD ([1]; 75 V% water, KF 90.5 wt. %, 50° C.): Form III

SMILES: CNC(=O)c1ncn2cc(-c3c(F)ccc([N-]S(=O)(=O)c4cc(Cl)cnc4OC)c3F)ncc12.[K+] [Forms II and III of the Potassium Salt]
- Crystalline form by XRPD ([1]; 0% water without molecular sieves, KF 0.189 wt. %, 50° C., 20 h): Form I^20 h

SMILES: CNC(=O)c1ncn2cc(-c3c(F)ccc(NS(=O)(=O)c4cc(Cl)cnc4OC)c3F)ncc12 [Free acid Form I, 6-(3-((5-chloro-2-methoxypyridine)-3-sulfonamido)-2,6-difluorophenyl)-N-methylimidazo[1,5-a]pyrazine-1-carboxamide]
- Solubility ([2]; Acetone, listed as Form I of the Free Acid): ~10000 µg/mL (≈ 19700 µM)
- Solubility ([2]; DCM, listed as Form I of the Free Acid): ~8000 µg/mL (≈ 15700 µM)
- Solubility ([2]; DMSO, listed as Form I of the Free Acid): >230000 µg/mL
- Solubility ([2]; EtOAc, listed as Form I of the Free Acid): ~2000 µg/mL (≈ 3930 µM)
- Solubility ([2]; EtOH, listed as Form I of the Free Acid): ~1000 µg/mL (≈ 1970 µM)
- Solubility ([2]; H2O (water), listed as Form I of the Free Acid): <100 µg/mL
- Solubility ([2]; Heptane): <100 µg/mL
- Solubility ([2]; IPA, listed as Form I of the Free Acid): ~400 µg/mL (≈ 786 µM)
- Solubility ([2]; IPAc, listed as Form I of the Free Acid): ~800 µg/mL (≈ 1570 µM)
- Solubility ([2]; MEK, listed as Form I of the Free Acid): ~6000 µg/mL (≈ 11800 µM)
- Solubility ([2]; MTBE): <100 µg/mL
- Solubility ([2]; MeCN, listed as Form I of the Free Acid): ~5000 µg/mL (≈ 9830 µM)
- Solubility ([2]; MeOH, listed as Form I of the Free Acid): ~700 µg/mL (≈ 1380 µM)
- Solubility ([2]; NBA, 24 °C, organic solvent or mixture, thermodynamic from solid, NBA, read-out: Solubility): ~700 µg/mL (≈ 1380 µM)
- Solubility ([2]; THF, listed as Form I of the Free Acid): ~35000 µg/mL (≈ 68800 µM)
- Solubility ([2]; toluene, 24 °C, organic solvent or mixture, thermodynamic from solid, Toluene, read-out: Solubility): < 100 µg/mL

SMILES: CNC(=O)c1ncn2cc(-c3c(F)ccc(NS(=O)(=O)c4cc(Cl)cnc4OC)c3F)ncc12 [Free acid Form II, 6-(3-((5-chloro-2-methoxypyridine)-3-sulfonamido)-2,6-difluorophenyl)-N-methylimidazo[1,5-a]pyrazine-1-carboxamide]
- pH (0 h) ([3]; FaSSGF, 37° C.): 1.60
- Concentration ([3]; FaSSGF, 37° C., 0.5 h): 200 ng/mL
- Concentration ([3]; FaSSGF, 37° C., 2.0 h): 300 ng/mL
- Concentration ([3]; FaSSGF, 37° C., 24 h): 1500 ng/mL
- pH (24 h) ([3]; FaSSGF, 37° C.): 1.57
- XRPD (filter cake, crystal form) ([3]; FaSSGF, 37° C.): Unchanged
- pH (0 h) ([3]; FaSSIF, 37° C.): 6.50
- Concentration ([3]; FaSSIF, 37° C., 0.25 h): 3000 ng/mL
- Concentration ([3]; FaSSIF, 37° C., 0.5 h): 1400 ng/mL
- Concentration ([3]; FaSSIF, 37° C., 0.75 h): 1300 ng/mL
- Concentration ([3]; FaSSIF, 37° C., 1.0 h): 1300 ng/mL
- Concentration ([3]; FaSSIF, 37° C., 2.0 h): 1600 ng/mL
- Concentration ([3]; FaSSIF, 37° C., 24 h): 4000 ng/mL
- pH (24 h) ([3]; FaSSIF, 37° C.): 6.49
- XRPD (filter cake, crystal form) ([3]; FaSSIF, 37° C.): Unchanged
- Purity (Area %) 220 nm ([4]; 0 day): 99.96 Area %
- Purity (Area %) 220 nm ([4]; 40° C./75% RH (open), 7 days): 99.94 Area %
- Purity (Area %) 220 nm ([4]; 60° C./closed, 7 days): 99.94 Area %
- physical and chemical stability [4]: maintained physical and chemical stability
- DVS weight gain ([5]; 0 to 90% relative humidity): ~0%
- DVS weight gain ([5]; 0 to 90% relative humidity, listed as Form II of the free acid): almost no weight gain
- Hygroscopicity (DVS) ([5]; class by weight gain to 80% relative humidity): Non-hygroscopic
- XRPD pattern after DVS testing ([5]; listed as Form II of the free acid): No changes
- Hygroscopicity (DVS) ([5]; relative to the class slightly hygroscopic): below slightly hygroscopic

SMILES: CNC(=O)c1ncn2cc(-c3c(F)ccc([N-]S(=O)(=O)c4cc(Cl)cnc4OC)c3F)ncc12.[Na+] [Na salt Form III]
- pH (0 h) ([3]; FaSSGF): 1.60
- Concentration ([3]; FaSSGF, 37° C., 0.5 h): 45900 ng/mL
- Concentration ([3]; FaSSGF, 37° C., 2.0 h): 4400 ng/mL
- Concentration ([3]; FaSSGF, 37° C., 24 h): 4100 ng/mL
- XRPD ([3]; FaSSGF): Changed
- pH (24 h) ([3]; FaSSGF): 1.68
- pH (0 h) ([3]; FaSSIF): 6.50
- Concentration ([3]; FaSSIF, 37° C., 0.25 h): 176000 ng/mL
- Concentration ([3]; FaSSIF, 37° C., 0.5 h): 175000 ng/mL
- Concentration ([3]; FaSSIF, 37° C., 0.75 h): 169000 ng/mL
- Concentration ([3]; FaSSIF, 37° C., 1.0 h): 170000 ng/mL
- Concentration ([3]; FaSSIF, 37° C., 2.0 h): 13200 ng/mL
- Concentration ([3]; FaSSIF, 37° C., 24 h): 9900 ng/mL
- XRPD ([3]; FaSSIF): Changed
- pH (24 h) ([3]; FaSSIF): 6.86

SMILES: CNC(=O)c1ncn2cc(-c3c(F)ccc(NS(=O)(=O)c4cc(Cl)cnc4OC)c3F)ncc12 [Sodium salt Form III, 6-(3-((5-chloro-2-methoxypyridine)-3-sulfonamido)-2,6-difluorophenyl)-N-methylimidazo[1,5-a]pyrazine-1-carboxamide]
- times more soluble than the free acid (Form II) ([3]; FaSSGF): about 230 times
- times more soluble than the free acid (Form II) ([3]; FaSSIF): about 100 times
- Purity (Area %) 220 nm ([4]; 0 day): 99.87 Area %
- Purity (Area %) 220 nm ([4]; 40° C./75% RH (open), 7 days): 99.87 Area %
- Purity (Area %) 220 nm ([4]; 60° C./closed, 7 days): 99.85 Area %
- physical and chemical stability [4]: maintained physical and chemical stability
- DVS weight gain ([5]; 0 to 30% relative humidity): 2.6%
- DVS weight gain ([5]; 0 to 30% relative humidity, listed as Form III of the sodium salt): around 2.6%
- DVS weight gain ([5]; 0 to 80% relative humidity): 3.3%
- DVS weight gain ([5]; 0 to 90% relative humidity): 4.7%
- DVS weight gain ([5]; 60 to 80% relative humidity, listed as Form III of the sodium salt): around 0.7%
- DVS weight gain ([5]; 80 to 90% relative humidity): 1.4%
- XRPD pattern after DVS testing ([5]; listed as Form III of the sodium salt): did not change
